# According to patent US20120053076A1, “METHODS FOR IDENTIFICATION” (Cambridge Enterprise Limited, priority 2009, published 2012):
# Like-named read-outs stand apart in the source and are kept apart here.
# Experiments:
# leukocytes = assay: Chemokine-induced leukocyte migration (cells not specified); format: cell-based; conditions: description b37, b38
# 5HT2a = conditions: rodents, cited from earlier work
# Jurkat T cells = assay: SDF-1α induced migration of parental Jurkat T cells; format: cell-based, human
# Experimental: Results: The level of the SDF-1α, receptor CXCR4 was similar on Jurkat-D3B and the parental Jurkat T cell line. Furthermore, the Jurkat-D3B cells responded to SDF-1α in a Transwell® chemotaxis assay (see Example 1 for the methodology employed) over a similar concentration range to the parental cell line.
# Jurkat T cells and Jurkat-D3B cells were induced to migrate in response to 100 ng/ml SDF-1α (R&D systems; the concentration of SDF-1α which induced maximal cell migration in both lines). The BSCI BN83250 was then added at various concentrations between 0 nM and 1000 nM (each in triplicate) to both the upper and lower compartments (at the same concentration in each compartment, so as not to create a gradient of BSCI concentration). DMSO (1% final concentration) was used as the vehicle, and was present in all wells at equal concentration.
# α2-adrenoreceptor [1] = target: T1, α2-adrenoreceptor; assay: [3H]-dihydroergocryptine binding to α2-adrenoreceptor membranes; conditions: 5 nM [3H]-DHE
# T1 construct: other: 5 nM [3H]-DHE
# Experimental: Methods: Radioligand binding experiments were performed with commercially available membrane preparations from cells expressing the α2-adrenoreceptor (Sigma) in accordance with the manufacturer's instructions. […] Experiments were performed in triplicate, and non-specific binding was determined in the presence of an excess (10 μM) of oxymetazoline.
# α2-adrenoreceptor [2] = conditions: radioligand RS-79948-197; Grainger et al. (2005); read-out: Apparent affinity at α2-adrenoreceptor; cited from earlier work
# platelets = assay: ADP-mediated platelet activation/aggregation; format: cell-based
# 5HT2a receptor = target: T2, 5HT2a receptor (Homo sapiens, UniProt P28223); assay: [3H]-ketanserin binding to 5HT2a receptor membranes
# T2 construct: purchased Sigma
# Experimental: Methods: Radioligand binding experiments were performed with commercially available membrane preparations from cells expressing the 5HT2a receptor (Sigma) in accordance with the manufacturer's instructions. [^3H]-ketanserin was used as the radioligand probe (according to the method of Leysen et al. (1988) Pharmacol. Exp. Therap. 244:310-21) at 1 nM concentration (0.05 μCi per reaction). Experiments were performed in triplicate, and non-specific binding was determined in the presence of an excess (10 μM) of metergoline (a relatively non-specific ergot-derived serotonin receptor antagonist).
# THP-1 cells = assay: MCP-1 induced THP-1 cell migration, Transwell assay; format: cell-based, human; conditions: MCP-1 25 ng/ml
# Experimental: Leukocyte migration was measured using the 96-well format micro Transwell® assay system from Neuroprobe (Gaithersburg, Md., USA). In principle, this assay consists of two chambers separated by a porous membrane. The chemoattractant is placed in the lower compartment and the cells are placed in the upper compartment.
# The method was performed essentially as previously described (Reckless & Grainger (1999) Biochem. J. 340:803-11).
# First, the cell suspension to be placed in the upper compartment was prepared. The THP-1 cells were pelleted by centrifugation (770×g; 4 mins) and washed with Geys Balanced Salt Solution with 1 mg/ml BSA (GBSS+BSA). This wash was then repeated, and the cells re-pelleted before being resuspended in a small volume of GBSS+BSA for counting, for example using a standard haemocytometer.
# The volume of GBSS+BSA was then adjusted depending on the number of cells present so that the cells were at final density of 4.45×10^6 cells per ml of GBSS+BSA. This ensured that there were 100,000 THP-1 cells in each 25 μl of the solution to be placed in the upper chamber of the plate.
# The suspension of THP-1 cells at 4.45×10^6 cells/ml was divided into three pots. […] To the second pot, the BSCI was added at the same concentration as in the first pot, but additionally the sstr2 antagonist was also added (for example BIM 23454 [Tulipano et al. (2002) 143:1218-24] or BIM 23627 were added at 66 nM final concentration from a stock solution in GBSS). To the third pot, GBSS+BSA plus vehicle as appropriate was added so that the volumes in three pots are equal, acting as a control.
# Next, the chemoattractant solution to be placed in the lower compartment was prepared. MCP-1 was diluted in GBSS+BSA to give a final concentration of 25 ng/ml (after all additions). Note that, as recommended by Frow et al (Med. Res. Rev. 24:276-98) this is the concentration of MCP-1 which induces maximal migration in this system. This solution was divided into three pots, as for the cell suspension. To one pot, the BSCI was added to the same final concentration as was added to the cell suspension, in the second pot the BSCI and the sstr2 antagonist were both added at the same concentration as previously added to the cell suspension, while to the remaining pot GBSS+BSA plus vehicle as appropriate was added so that the volumes in the three pots were equal.
# Once the chemoattractant solutions for the lower wells and cell solutions for the upper chambers were prepared, the migration chamber was assembled. 29 μl of the appropriate chemoattractant solution was placed into the lower well of the chamber. Assays were performed with at least triplicate determinations of each condition. Once all the lower chambers were filled, the porous membrane was applied to the chamber in accordance with the manufacturer's instructions. Finally, 25 μl of the appropriate cell solution was applied to each upper chamber. A plastic lid was placed over the entire apparatus to prevent evaporation.
# The assembled chamber was incubated at 37° C., 5% CO2, for 2 hours.
# At the end of the incubation, the liquid cell suspension was gently removed from the upper chamber, 20 μl of ice-cold 20 mM EDTA in PBS was added to the upper chamber, and the apparatus was incubated at 4° C. for 15 mins. This procedure caused any cells adhering to the underside of the membrane to fall into the lower chamber.
# After this incubation the filter was carefully flushed with GBSS+BSA to wash off the EDTA, and then the filter was removed.
# The number of cells migrated into the lower chamber under each condition can then be determined by a number of methods, including direct counting, labelling with fluorescent or radioactive markers or through the use of a vital dye. Typically, we utilised the vital dye MTT.
# α2-adrenoreceptor [3] = assay: Blood pressure; format: in vivo; conditions: description b37
# [4] = target: type 2 somatostatin receptor (sstr2), human (human) (UniProt P30874); assay: cell-based or functional assay
# Sequence of type 2 somatostatin receptor (sstr2), human (human) (P30874 whole entry): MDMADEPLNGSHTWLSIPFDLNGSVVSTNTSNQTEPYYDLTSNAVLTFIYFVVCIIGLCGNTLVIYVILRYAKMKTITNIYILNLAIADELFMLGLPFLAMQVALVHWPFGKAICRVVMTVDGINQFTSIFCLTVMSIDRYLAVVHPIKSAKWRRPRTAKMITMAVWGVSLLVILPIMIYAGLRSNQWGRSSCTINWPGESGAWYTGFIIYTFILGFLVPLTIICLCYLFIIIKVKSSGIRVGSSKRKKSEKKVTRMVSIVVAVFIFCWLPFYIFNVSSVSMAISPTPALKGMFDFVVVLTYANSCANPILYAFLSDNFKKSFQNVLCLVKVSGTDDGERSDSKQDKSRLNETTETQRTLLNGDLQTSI
# T2 sequence (P28223 whole entry): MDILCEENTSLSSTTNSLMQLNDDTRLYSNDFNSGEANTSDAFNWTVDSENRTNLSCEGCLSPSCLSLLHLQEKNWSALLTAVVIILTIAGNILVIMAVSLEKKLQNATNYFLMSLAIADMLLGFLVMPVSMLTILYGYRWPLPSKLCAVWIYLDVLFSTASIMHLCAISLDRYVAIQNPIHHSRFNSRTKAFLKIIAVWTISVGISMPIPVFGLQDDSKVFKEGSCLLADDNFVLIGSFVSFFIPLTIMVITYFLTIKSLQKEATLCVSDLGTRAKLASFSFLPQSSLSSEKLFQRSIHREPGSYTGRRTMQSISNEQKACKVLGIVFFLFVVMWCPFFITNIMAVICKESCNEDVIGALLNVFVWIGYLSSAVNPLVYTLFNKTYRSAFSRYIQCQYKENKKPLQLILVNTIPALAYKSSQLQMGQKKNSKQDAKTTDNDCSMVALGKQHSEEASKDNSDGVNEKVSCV
compound,measurement,setting,value
COc1cc(Br)c(OC)c2c1[C@H](CN)C2 [TCB-2],"Effect on chemokine-induced leukocyte migration, in words",leukocytes,no effect on chemokine-induced leukocyte migration
same,Head twitching by classical 5HT2a agonists,5HT2a,induce this classical effect
same,Head twitching by classical 5HT2a agonists,5HT2a; listed as TCB2,powerfully induces head twitch
NC(=O)C1CCC[C@H]2CN3CCc4c([nH]c5ccccc45)[C@@H]3C[C@H]12 (stereo partly shown) [Yohimban-16-amide],"Inhibition of SDF-1α induced migration of Jurkat T cells, in words",Jurkat T cells,neither agent inhibits
same,"Apparent Ka, inhibition of [3H]-DHE binding",α2-adrenoreceptor [1],89 ± 13 nM
same,Ki,α2-adrenoreceptor [2],770 nM
same,Effect on ADP-mediated platelet activation/aggregation,platelets,no effect on the activation of platelets in response to ADP
CN1C[C@H](C(=O)O)C=C2c3cccc4[nH]cc(c34)C[C@H]21 [lysergic acid],"Inhibition of SDF-1α induced migration of Jurkat T cells, in words",Jurkat T cells,neither agent inhibits
same,Ki,5HT2a receptor,49 ± 12 nM
same,"Inhibition of MCP-1 induced THP-1 cell migration, in words",THP-1 cells,neither agent inhibits
COC(=O)[C@H]1[C@H]2C[C@@H]3c4[nH]c5cc(OC)ccc5c4CCN3C[C@H]2C[C@@H](OC(=O)c2cc(OC)c(OC)c(OC)c2)[C@@H]1OC [reserpine],"Effect on chemokine-induced leukocyte migration, in words",leukocytes,no effect on chemokine-induced leukocyte migration
same,Effect on blood pressure,α2-adrenoreceptor [3],powerfully lowers blood pressure
cortistatin (peptide),ED50 for inhibition of MCP-1 induced THP-1 cell migration,[4],75 nM
